Results on 32 molecules are retold here after patent US20140005177A1, “PYRIDINYL- AND PYRAZINYL-METHYLOXY-ARYL DERIVATIVES USEFUL AS INHIBITORS OF SPLEEN TYROSINE KINASE (SYK)” (GLAXO GROUP LIMITED, priority 2011, published 2014).

The structures appear in SMILES notation. Structures can show the parent of a compound that is named as a salt. Where two headings read alike, the source gives them in different places.

For the assay, the system named is Ramos B cells. Put plainly: Ramos pErk assay (anti-IgM stimulated B cells, pErk MSD). The format is cell-based. The note with it: Homo sapiens, anti-IgM 5 μg/ml, pErk readout, read-out: average pIC50 (converted). The method, then: Ramos B cells (human B cells of Burkitt's Lymphoma) are stimulated using anti-IgM. […] The subsequent autophosphorylation of Syk leads to initiation of a signalling cascade resulting in B cell activation via the Erk MAP Kinase pathway. As a result Erk is phosphorylated and following cell lysis is detected by an immune capture assay.
Cells were plated at a density of 2.5×10^5/well in a volume of 25 μl assay medium (RPMI containing 10% heat inactivated foetal calf serum, 1% L-glutamine) in 96 v-well polypropylene plates. 25 μl appropriately diluted compound solution was added and the plate incubated for 30 min at 37° C. with 5% CO2. Cells were stimulated with 5 μl Fab′2 fragments of goat anti-human IgM (5 μg/ml final) for 7 min at 37° C. Cells are lysed by the addition of 55 μL 2×RIPA lysis buffer for 2 h at 4° C. Lysate may be frozen at this point at −80° C.
50 μl cell lysate was transferred to a 96 well MSD plate coated with anti-pErk1/2 (Thr/Tyr: 202/204; 185/187) capture antibody and incubated for 16 hours at 4° C. or 3 hours at room temperature. The plate was washed and an anti-pErk detection antibody added (25 μl/well) for 1 hour at room temperature. This was removed, 150 μL MSD read buffer added and the resultant electrochemiluminescence signal measured.
Compound was prepared as a 10 mM stock in DMSO and a dilution series prepared in DMSO using 9 successive 5-fold dilutions. This dilution series was diluted a further 1:100 with assay medium to give the final concentration range to be tested of 5×10^−5 to 2.56×10^−11M. Compound dilutions were prepared using the Biomek 2000 and Biomek Nx automated robotic pipetting systems.

As to `COc1cccc(OCc2cc(C)ccn2)c1-c1ccc2c(c1)CCNCC2` [Example 2, 7-(2-(methyloxy)-6-{[(4-methyl-2-pyridinyl)methyl]oxy}phenyl)-2,3,4,5-tetrahydro-1H-3-benzazepine], the IC50 is no more than 1000 nM. In addition, the IC50 (Ramos) is 158 to 6310 nM.
On to `COc1ccc(-c2ccc3c(c2)CCNCC3)c(OCc2cc(C)ccn2)c1` [Example 3, 7-(4-(methyloxy)-2-{[(4-methyl-2-pyridinyl)methyl]oxy}phenyl)-2,3,4,5-tetrahydro-1H-3-benzazepine], for which the IC50 was no more than 1000 nM. Besides, the IC50 (Ramos) is 158 to 6310 nM.
With `CC(=O)c1ccc(OCc2cc(C)ccn2)c(-c2ccc3c(c2)CCNCC3)c1` [Example 4, 1-[4-{[(4-methyl-2-pyridinyl)methyl]oxy}-3-(2,3,4,5-tetrahydro-1H-3-benzazepin-7-yl)phenyl]ethanone], the IC50 was no more than 1000 nM.
Take `Cc1ccnc(COc2ccc(F)cc2-c2ccc3c(c2)CNCC3)c1` [Example 6, 7-(5-fluoro-2-{[(4-methyl-2-pyridinyl)methyl]oxy}phenyl)-1,2,3,4-tetrahydroisoquinoline]: the IC50 (Ramos) was 158 to 6310 nM.
For the molecule `COc1ccnc(COc2ccccc2-c2ccc3c(c2)CCNCC3)c1` [Example 7, 7-[2-({[4-(methyloxy)-2-pyridinyl]methyl}oxy)phenyl]-2,3,4,5-tetrahydro-1H-3-benzazepine], the IC50 (Ramos) was 158 to 6310 nM.
`Cc1ccnc(COc2ccc(C)cc2-c2ccc3c(c2)CNCC3)c1` [Example 10, 7-(5-methyl-2-{[(4-methyl-2-pyridinyl)methyl]oxy}phenyl)-1,2,3,4-tetrahydroisoquinoline]: under “Ramos”, the IC50 was 158 to 6310 nM.
Still for that read-out and setting: under `COc1cccc(OCc2cc(C)ccn2)c1-c1ccc2c(c1)CNCC2` [Example 11, 7-(2-(methyloxy)-6-{[(4-methyl-2-pyridinyl)methyl]oxy}phenyl)-1,2,3,4-tetrahydroisoquinoline] stands 158 to 6310 nM; under `CCOc1ccc(OCc2cc(C)ccn2)c(-c2ccc3c(c2)CNCC3)c1` [Example 12, 7-(5-(ethyloxy)-2-{[(4-methyl-2-pyridinyl)methyl]oxy}phenyl)-1,2,3,4-tetrahydroisoquinoline], 158 to 6310 nM.
On to `Cc1ccnc(COc2ccc(C(F)(F)F)cc2-c2ccc3c(c2)CNCC3)c1` [Example 15, 7-[2-{[(4-methyl-2-pyridinyl)methyl]oxy}-5-(trifluoromethyl)phenyl]-1,2,3,4-tetrahydroisoquinoline], for which, where the note is “Ramos”, the IC50 is 158 to 6310 nM.
On the same count and under the same terms, under `COc1ccc(OCc2cc(C)ccn2)c(-c2ccc3c(c2)CNCC3)c1` [Example 16, 7-(5-(methyloxy)-2-{[(4-methyl-2-pyridinyl)methyl]oxy}phenyl)-1,2,3,4-tetrahydroisoquinoline] stands 158 to 6310 nM.
Turning to `Cc1ccnc(COc2ccc(C(C)(C)C)cc2-c2ccc3c(c2)CNCC3)c1` [Example 17, 7-(5-(1,1-dimethylethyl)-2-{[(4-methyl-2-pyridinyl)methyl]oxy}phenyl)-1,2,3,4-tetrahydroisoquinoline], the IC50 (Ramos) is 158 to 6310 nM.
Same read-out and setting: the result for `Cc1ccnc(COc2ccc(C)nc2-c2ccc3c(c2)CCNCC3)c1` [Example 19, 7-(6-methyl-3-{[(4-methyl-2-pyridinyl)methyl]oxy}-2-pyridinyl)-2,3,4,5-tetrahydro-1H-3-benzazepine, trifluoroacetate] reads 158 to 6310 nM; that for `COc1ccc(OCc2cnccn2)c(-c2ccc3c(c2)CCNCC3)c1` [Example 20, 7-{5-(methyloxy)-2-[(2-pyrazinylmethyl)oxy]phenyl}-2,3,4,5-tetrahydro-1H-3-benzazepine, trifluoroacetate], 158 to 6310 nM.
Still for that read-out and setting: under `COc1ccc(OCc2cc(C)ccn2)c(-c2ccc3c(c2)CCNCC3)c1` [Example 22, 7-(5-(methyloxy)-2-{[(4-methyl-2-pyridinyl)methyl]oxy}phenyl)-2,3,4,5-tetrahydro-1H-3-benzazepine, trifluoroacetate] stands 158 to 6310 nM; under `CC(=O)c1ccc(OCc2cc(C)ccn2)c(-c2ccc3c(c2)CCNCC3)c1` [Example 24, 1-[4-{[(4-methyl-2-pyridinyl)methyl]oxy}-3-(2,3,4,5-tetrahydro-1H-3-benzazepin-7-yl)phenyl]ethanone, trifluoroacetate], 158 to 6310 nM; under `Cc1ccnc(COc2ccc(F)cc2-c2ccc3c(c2)CCNCC3)c1` [Example 26, 7-(5-fluoro-2-{[(4-methyl-2-pyridinyl)methyl]oxy}phenyl)-2,3,4,5-tetrahydro-1H-3-benzazepine], 158 to 6310 nM.
Consider `Cc1ccnc(COc2ccc(C)cc2-c2ccc3c(c2)CCNCC3)c1` [Example 27, 7-(5-methyl-2-{[(4-methyl-2-pyridinyl)methyl]oxy}phenyl)-2,3,4,5-tetrahydro-1H-3-benzazepine], for which the IC50 (Ramos) is 158 to 6310 nM.
Still for that read-out and setting: the result for `CCOc1ccc(OCc2cc(C)ccn2)c(-c2ccc3c(c2)CCNCC3)c1` [Example 28, 7-(5-(ethyloxy)-2-{[(4-methyl-2-pyridinyl)methyl]oxy}phenyl)-2,3,4,5-tetrahydro-1H-3-benzazepine] reads 158 to 6310 nM.
On the same count and under the same terms, the result for `Cc1ccnc(COc2ccc(C#N)cc2-c2ccc3c(c2)CCNCC3)c1` [Example 30, 4-{[(4-methyl-2-pyridinyl)methyl]oxy}-3-(2,3,4,5-tetrahydro-1H-3-benzazepin-7-yl)benzonitrile] reads 158 to 6310 nM.
Take `Cc1ccnc(COc2ccc(C(F)(F)F)cc2-c2ccc3c(c2)CCNCC3)c1` [Example 31, 7-[2-{[(4-methyl-2-pyridinyl)methyl]oxy}-5-(trifluoromethyl)phenyl]-2,3,4,5-tetrahydro-1H-3-benzazepine]: for the setting “Ramos”, the IC50 is 158 to 6310 nM.
On the same count and under the same terms, the result for `Cc1ccnc(COc2ccc(C(C)(C)C)cc2-c2ccc3c(c2)CCNCC3)c1` [Example 32, 7-(5-(1,1-dimethylethyl)-2-{[(4-methyl-2-pyridinyl)methyl]oxy}phenyl)-2,3,4,5-tetrahydro-1H-3-benzazepine] reads 158 to 6310 nM; that for `CCc1ccnc(COc2ccc(C)nc2-c2ccc3c(c2)CCNCC3)c1` [Example 33, 7-(3-{[(4-ethyl-2-pyridinyl)methyl]oxy}-6-methyl-2-pyridinyl)-2,3,4,5-tetrahydro-1H-3-benzazepine], 158 to 6310 nM.
The same measure, in the same setting: under `Cc1ccnc(COc2ccc(C(C)(C)C)nc2-c2ccc3c(c2)CCNCC3)c1` [Example 34, 7-(6-(1,1-dimethylethyl)-3-{[(4-methyl-2-pyridinyl)methyl]oxy}-2-pyridinyl)-2,3,4,5-tetrahydro-1H-3-benzazepine] stands 158 to 6310 nM; under `CCc1ccnc(COc2ccc(C(C)=O)cc2-c2ccc3c(c2)CCNCC3)c1` [Example 35, 1-[4-{[(4-ethyl-2-pyridinyl)methyl]oxy}-3-(2,3,4,5-tetrahydro-1H-3-benzazepin-7-yl)phenyl]ethanone], 158 to 6310 nM.
Same read-out and setting: under `CCOc1ccnc(COc2ccc(C(C)=O)cc2-c2ccc3c(c2)CCNCC3)c1` [Example 36, 1-[4-({[4-(ethyloxy)-2-pyridinyl]methyl}oxy)-3-(2,3,4,5-tetrahydro-1H-3-benzazepin-7-yl)phenyl]ethanone] stands 158 to 6310 nM.
As to `COc1ccc(OCc2ccccn2)c(-c2ccc3c(c2)CCNCC3)c1` [Example 37, 7-{5-(methyloxy)-2-[(2-pyridinylmethyl)oxy]phenyl}-2,3,4,5-tetrahydro-1H-3-benzazepine], the IC50 (Ramos) was 158 to 6310 nM.
With `CC(=O)c1ccc(OCc2ccccn2)c(-c2ccc3c(c2)CNCC3)c1` [Example 38, 1-[4-[(2-pyridinylmethyl)oxy]-3-(1,2,3,4-tetrahydro-7-isoquinolinyl)phenyl]ethanone], where the note is “Ramos”, the IC50 is 158 to 6310 nM.
Still for that read-out and setting: the result for `CNC(=O)c1ccc(OCc2cc(C)ccn2)c(-c2ccc3c(c2)CCNCC3)c1` [Example 39, N-methyl-4-{[(4-methyl-2-pyridinyl)methyl]oxy}-3-(2,3,4,5-tetrahydro-1H-3-benzazepin-7-yl)benzamide] reads 158 to 6310 nM; that for `Cc1ccnc(COc2ccc(C(=O)N(C)C)cc2-c2ccc3c(c2)CNCC3)c1` [Example 41, N,N-dimethyl-4-{[(4-methyl-2-pyridinyl)methyl]oxy}-3-(1,2,3,4-tetrahydro-7-isoquinolinyl)benzamide], 158 to 6310 nM.
The same measure, in the same setting: under `Cc1ccnc(COc2ccc(Cl)cc2-c2ccc3c(c2)CCNCC3)c1` [Example 45, 7-(5-chloro-2-{[(4-methyl-2-pyridinyl)methyl]oxy}phenyl)-2,3,4,5-tetrahydro-1H-3-benzazepine] stands 158 to 6310 nM.
On the same count and under the same terms, under `Clc1ccc(OCc2ccccn2)c(-c2ccc3c(c2)CNCC3)c1` [Example 46, 7-{5-chloro-2-[(2-pyridinylmethyl)oxy]phenyl}-1,2,3,4-tetrahydroisoquinoline] stands 158 to 6310 nM; under `Cc1ccnc(COc2ccc(Cl)nc2-c2ccc3c(c2)CCNCC3)c1` [Example 48, 7-(6-chloro-3-{[(4-methyl-2-pyridinyl)methyl]oxy}-2-pyridinyl)-2,3,4,5-tetrahydro-1H-3-benzazepine], 158 to 6310 nM.
